Reference: patent publication US20240099304A1, “SYNERGISTIC HERBICIDAL COMPOSITIONS OF METAMIFOP” (Parijat Industries (India) Private Limited, priority 2021, published 2024)

Experiments:
Format in all cases: in vivo
Commelina benghalensis = assay: Field efficacy on broad leaf weed in soybean, post-emergence foliar application
Experimental: (§1) As described in the Herbicide Handbook of the Weed Science Society of America, Ninth Edition, 2007, p. 429, “synergism” [is] an interaction of two or more factors such that the effect when combined is greater than the predicted effect based on the response to each factor applied separately. In the Colby method, the expected (or predicted) response of a combination of herbicides is calculated by taking the product of the observed response for each individual component of the combination when applied alone divided by 100 and subtracting this value from the sum of the observed response for each component while applied alone. An unexpected enhancement in efficacy of the combination is then determined by comparing the observed response of the combination to the expected (or predicted) response as calculated from the observed response of each individual component alone. If the observed response of the combination is greater than the expected (or predicted) response, or stated conversely, if the difference between the observed and expected response is greater than zero, then the combination is said to be synergistic or unexpectedly effective. (Colby, S. R., Weeds, 1967(15), p. 20-22). The Colby method required only a single dose of each herbicide applied alone and the mixture of both doses.
(§2) Synergy Study: The following formula was used to calculate the expected activity of mixtures containing active ingredients, A and B:
(§3) • A=Observed efficacy of active ingredient (combination of Metamifop and Imidazolinone herbicides) A at the same concentration as used in the mixture. • B=observed efficacy of active ingredient B at the same concentration as used in the mixture. However, following formula was used to calculate the expected activity of mixtures containing three active ingredients, A, B and C:
(§4) • A=observed efficacy of active ingredient (combination of Metamifop and Imidazolinone herbicides) A at the same concentration as used in the mixture. • B=observed efficacy of active ingredient B at the same concentration as used in the mixture. • C=observed efficacy of active ingredient C at the same concentration as used in the mixture.
(§5) EFFICACY STUDY: The field experiments were carried out to test the synergy of the combination Metamifop, Imazethapyr, and Imazamox in India at various locations like in MP, Maharashtra, Karnataka, and Telangana on farmer's field against soybean weeds during Kharif season. The experiment comprising of 15 treatments including premixed binary and ternary combinations along with their stand-alone molecule using a randomized block design replicated thrice. All the treatments were applied as post-emergence foliar application when the weeds reached to two to four leaf stage. The spray was conducted with the help of Battery-operated Knapsack sprayer. The percentage efficacy was calculated after 14 and 21 days after application of herbicides.
(§6) The weeds present in the experimental fields were echinochloa conola, echinochloa crusgalli, brachiaria euriciformis, rottboellia cochinchinensis, cynodon dactylon, parthenium hyterophorus, digera arvensis, cynotis axillaris, acalypha indica, Commelina benghalensis, celosia argentia, cyperus spp.

Cyanotis axillaris = assay: as above
Experimental: as §1, §2, §3, §4, §5, §6

Parthenium hysterophorus = assay: as above
Experimental: as §1, §2, §3, §4, §5, §6

[1] = test system: hard to kill broad leaf weeds; assay: Field efficacy, summary on broad leaf weeds
Experimental: as §1, §5

Brachiaria eruciformis = assay: Field efficacy on grass weed in soybean, post-emergence foliar application
Experimental: as §1, §2, §3, §4, §5, §6

Echinochloa crusgalli = assay: as above
Experimental: as §1, §2, §3, §4, §5, §6

[2] = test system: Rottboellia cochinchinensis; assay: as above
Experimental: as §1, §2, §3, §4, §5, §6

Soybean = assay: Phytotoxicity in Soybean, visual grading on 0-10 scale; design: key: visual phytotoxicity grade on 0-10 scale; details: Soybean
Experimental: as §5
Phytotoxic effect of herbicidal combination of Metamifop, Imazethapyr and Imazamox in soyabean: Table 5, 10 show the visual observations and grading on phytotoxicity which was recorded for leaf injury on tip/surface, Epinasty/Hyponasty, and wilting etc. on 0-10 scale (as below) at 1, 3, 7, 14 and 21 days after application of the present herbicidal composition.

C[C@@H](Oc1ccc(Oc2nc3ccc(Cl)cc3o2)cc1)C(=O)N(C)c1ccccc1F [Metamifop]
74%: % Weed control burn down symptoms generation Observed (Echinochloa crusgalli; 21 DAA, Metamifop 80 gm ai/ha)
67%: % Weed control burn down symptoms generation Observed ([2]; 14 DAA, Metamifop 80 gm ai/ha)
78%: % Weed control burn down symptoms generation Observed (Brachiaria eruciformis; 21 DAA, Metamifop 80 gm ai/ha)
77%: % Weed control burn down symptoms generation Observed (Echinochloa crusgalli; 21 DAA, Metamifop 90 gm ai/ha)
88%: % Weed control burn down symptoms generation Observed (Brachiaria eruciformis; 14 DAA, Metamifop 90 gm ai/ha)
70%: % Weed control burn down symptoms generation Observed ([2]; 14 DAA, Metamifop 90 gm ai/ha) | % Weed control burn down symptoms generation Observed ([2]; 21 DAA, Metamifop 80 gm ai/ha)
80%: % Weed control burn down symptoms generation Observed (Echinochloa crusgalli; 14 DAA, Metamifop 80 gm ai/ha)
84%: % Weed control burn down symptoms generation Observed (Brachiaria eruciformis; 14 DAA, Metamifop 80 gm ai/ha)
0%: % Weed control burn down symptoms generation Observed (Commelina benghalensis; 14 DAA, Metamifop 80 gm ai/ha) | % Weed control burn down symptoms generation Observed (Commelina benghalensis; 14 DAA, Metamifop 90 gm ai/ha) | % Weed control burn down symptoms generation Observed (Commelina benghalensis; 21 DAA, Metamifop 80 gm ai/ha) | % Weed control burn down symptoms generation Observed (Commelina benghalensis; 21 DAA, Metamifop 90 gm ai/ha) | % Weed control burn down symptoms generation Observed (Cyanotis axillaris; 14 DAA, Metamifop 80 gm ai/ha) | % Weed control burn down symptoms generation Observed (Cyanotis axillaris; 14 DAA, Metamifop 90 gm ai/ha) | % Weed control burn down symptoms generation Observed (Cyanotis axillaris; 21 DAA, Metamifop 80 gm ai/ha) | % Weed control burn down symptoms generation Observed (Cyanotis axillaris; 21 DAA, Metamifop 90 gm ai/ha) | % Weed control burn down symptoms generation Observed (Parthenium hysterophorus; 14 DAA, Metamifop 80 gm ai/ha) | % Weed control burn down symptoms generation Observed (Parthenium hysterophorus; 14 DAA, Metamifop 90 gm ai/ha) | % Weed control burn down symptoms generation Observed (Parthenium hysterophorus; 21 DAA, Metamifop 80 gm ai/ha) | % Weed control burn down symptoms generation Observed (Parthenium hysterophorus; 21 DAA, Metamifop 90 gm ai/ha)
0: Phytotoxicity score (Soybean; 1 DAA, Metamifop 80 gm ai/ha) | Phytotoxicity score (Soybean; 1 DAA, Metamifop 90 gm ai/ha) | Phytotoxicity score (Soybean; 3 DAA, Metamifop 80 gm ai/ha) | Phytotoxicity score (Soybean; 3 DAA, Metamifop 90 gm ai/ha) | Phytotoxicity score (Soybean; 7 DAA, Metamifop 80 gm ai/ha) | Phytotoxicity score (Soybean; 7 DAA, Metamifop 90 gm ai/ha) | Phytotoxicity score (Soybean; 14 DAA, Metamifop 80 gm ai/ha) | Phytotoxicity score (Soybean; 14 DAA, Metamifop 90 gm ai/ha) | Phytotoxicity score (Soybean; 21 DAA, Metamifop 80 gm ai/ha) | Phytotoxicity score (Soybean; 21 DAA, Metamifop 90 gm ai/ha)
83%: % Weed control burn down symptoms generation Observed (Echinochloa crusgalli; 14 DAA, Metamifop 90 gm ai/ha)
no or very less control: Control on targeted weeds, applied alone ([1]; at 14 days) | Control on targeted weeds, applied alone ([1]; at 21 days)
72%: % Weed control burn down symptoms generation Observed ([2]; 21 DAA, Metamifop 90 gm ai/ha)
81%: % Weed control burn down symptoms generation Observed (Brachiaria eruciformis; 21 DAA, Metamifop 90 gm ai/ha)

COCc1cnc(C2=NC(C)(C(C)C)C(=O)N2)c(C(=O)O)c1 (centres unmarked) [Imazamox]
6%: % Weed control burn down symptoms generation Observed (Commelina benghalensis; 14 DAA, Imazamox 35 gm ai/ha)
4%: % Weed control burn down symptoms generation Observed (Commelina benghalensis; 14 DAA, Imazamox 30 gm ai/ha)
0: Phytotoxicity score (Soybean; 1 DAA, Imazamox 20 gm ai/ha) | Phytotoxicity score (Soybean; 1 DAA, Imazamox 30 gm ai/ha) | Phytotoxicity score (Soybean; 1 DAA, Imazamox 35 gm ai/ha) | Phytotoxicity score (Soybean; 3 DAA, Imazamox 20 gm ai/ha) | Phytotoxicity score (Soybean; 3 DAA, Imazamox 30 gm ai/ha) | Phytotoxicity score (Soybean; 3 DAA, Imazamox 35 gm ai/ha) | Phytotoxicity score (Soybean; 7 DAA, Imazamox 20 gm ai/ha) | Phytotoxicity score (Soybean; 7 DAA, Imazamox 30 gm ai/ha) | Phytotoxicity score (Soybean; 7 DAA, Imazamox 35 gm ai/ha) | Phytotoxicity score (Soybean; 14 DAA, Imazamox 20 gm ai/ha) | Phytotoxicity score (Soybean; 14 DAA, Imazamox 30 gm ai/ha) | Phytotoxicity score (Soybean; 14 DAA, Imazamox 35 gm ai/ha) | Phytotoxicity score (Soybean; 21 DAA, Imazamox 20 gm ai/ha) | Phytotoxicity score (Soybean; 21 DAA, Imazamox 30 gm ai/ha) | Phytotoxicity score (Soybean; 21 DAA, Imazamox 35 gm ai/ha)
0%: % Weed control burn down symptoms generation Observed (Commelina benghalensis; 14 DAA, Imazamox 20 gm ai/ha) | % Weed control burn down symptoms generation Observed (Commelina benghalensis; 21 DAA, Imazamox 20 gm ai/ha) | % Weed control burn down symptoms generation Observed (Commelina benghalensis; 21 DAA, Imazamox 30 gm ai/ha) | % Weed control burn down symptoms generation Observed (Commelina benghalensis; 21 DAA, Imazamox 35 gm ai/ha) | % Weed control burn down symptoms generation Observed (Cyanotis axillaris; 14 DAA, Imazamox 20 gm ai/ha) | % Weed control burn down symptoms generation Observed (Cyanotis axillaris; 14 DAA, Imazamox 30 gm ai/ha) | % Weed control burn down symptoms generation Observed (Cyanotis axillaris; 14 DAA, Imazamox 35 gm ai/ha) | % Weed control burn down symptoms generation Observed (Cyanotis axillaris; 21 DAA, Imazamox 20 gm ai/ha) | % Weed control burn down symptoms generation Observed (Cyanotis axillaris; 21 DAA, Imazamox 30 gm ai/ha) | % Weed control burn down symptoms generation Observed (Cyanotis axillaris; 21 DAA, Imazamox 35 gm ai/ha) | % Weed control burn down symptoms generation Observed (Parthenium hysterophorus; 14 DAA, Imazamox 20 gm ai/ha) | % Weed control burn down symptoms generation Observed (Parthenium hysterophorus; 14 DAA, Imazamox 30 gm ai/ha) | % Weed control burn down symptoms generation Observed (Parthenium hysterophorus; 14 DAA, Imazamox 35 gm ai/ha) | % Weed control burn down symptoms generation Observed (Parthenium hysterophorus; 21 DAA, Imazamox 20 gm ai/ha) | % Weed control burn down symptoms generation Observed (Parthenium hysterophorus; 21 DAA, Imazamox 30 gm ai/ha) | % Weed control burn down symptoms generation Observed (Parthenium hysterophorus; 21 DAA, Imazamox 35 gm ai/ha) | % Weed control burn down symptoms generation Observed (Brachiaria eruciformis; 14 DAA, Imazamox 20 gm ai/ha) | % Weed control burn down symptoms generation Observed (Brachiaria eruciformis; 14 DAA, Imazamox 30 gm ai/ha) | % Weed control burn down symptoms generation Observed (Brachiaria eruciformis; 14 DAA, Imazamox 35 gm ai/ha) | % Weed control burn down symptoms generation Observed (Brachiaria eruciformis; 21 DAA, Imazamox 20 gm ai/ha) | % Weed control burn down symptoms generation Observed (Brachiaria eruciformis; 21 DAA, Imazamox 30 gm ai/ha) | % Weed control burn down symptoms generation Observed (Brachiaria eruciformis; 21 DAA, Imazamox 35 gm ai/ha) | % Weed control burn down symptoms generation Observed (Echinochloa crusgalli; 14 DAA, Imazamox 20 gm ai/ha) | % Weed control burn down symptoms generation Observed (Echinochloa crusgalli; 14 DAA, Imazamox 30 gm ai/ha) | % Weed control burn down symptoms generation Observed (Echinochloa crusgalli; 14 DAA, Imazamox 35 gm ai/ha) | % Weed control burn down symptoms generation Observed (Echinochloa crusgalli; 21 DAA, Imazamox 20 gm ai/ha) | % Weed control burn down symptoms generation Observed (Echinochloa crusgalli; 21 DAA, Imazamox 30 gm ai/ha) | % Weed control burn down symptoms generation Observed (Echinochloa crusgalli; 21 DAA, Imazamox 35 gm ai/ha) | % Weed control burn down symptoms generation Observed ([2]; 14 DAA, Imazamox 20 gm ai/ha) | % Weed control burn down symptoms generation Observed ([2]; 14 DAA, Imazamox 30 gm ai/ha) | % Weed control burn down symptoms generation Observed ([2]; 14 DAA, Imazamox 35 gm ai/ha) | % Weed control burn down symptoms generation Observed ([2]; 21 DAA, Imazamox 20 gm ai/ha) | % Weed control burn down symptoms generation Observed ([2]; 21 DAA, Imazamox 30 gm ai/ha) | % Weed control burn down symptoms generation Observed ([2]; 21 DAA, Imazamox 35 gm ai/ha)
no or very less control: Control on targeted weeds, applied alone ([1]; at 14 days) | Control on targeted weeds, applied alone ([1]; at 21 days)
